Test results published in patent US9089572B2, “Inhibitors of p97” (California Institute of Technology, priority 2008, dated 2015).

Tests used:
wild type murine p97 = wild type murine p97 (Mus musculus, UniProt Q01853); assay: In vitro ATP hydrolysis (malachite green ATPase assay), wild type murine p97; type: biochemical; conditions: 200 nM p97, 20 min preincubation at 23° C., malachite green; read-out: In vitro ATP Hydrolysis Activity IC50 WT-mP97
Method: (§1) Compounds were tested for their ability to inhibit the ATPase activity of purified wild type murine p97 and T532C-Cdc48, a mutant of yeast Cdc48 in which the residue analogous to cysteine 522, threonine 532, was converted to cysteine.

HeLa cells = assay: Accumulation of high molecular weight ubiquitin conjugates (anti-ubiquitin immunoblot), HeLa cells; type: cell-based; conditions: 1 h at 37° C.
From the text: (§2) To evaluate whether compound 2 can target p97 activity in cells, we sought to determine whether this compound induces accumulation of high molecular weight ubiquitin conjugates, since it is known that RNAi-mediated knockdown of p97 in mammalian cells has this effect (Wojcik, C. et al. J. Cell Sci. (2004) 117, 281-292). As a positive control for this experiment, the proteasome inhibitor MG132 was used. […] The cells were then harvested, lysed, and centrifuged to generate soluble and insoluble fractions. These fractions were then immunoblotted with anti-ubiquitin antibodies to detect accumulation of high molecular weight conjugates. Blots were also probed with anti-PSTAIRE antibodies as a loading control. […] This effect is particularly pronounced in the insoluble fraction.
(§3) To evaluate whether compound 8 can target p97 activity in cells, it was determined whether this compound induces accumulation of high molecular weight ubiquitin conjugates, since it is known that RNAi-mediated knockdown of p97 in mammalian cells has this effect (Wojcik, C. et al. J. Cell Sci. (2004) 117, 281-292). The proteasome inhibitor bortezomib (velcade) was employed as a positive control for this experiment. HeLa (FIG. 25) or RPMI8226 (FIG. 26) cells were treated with Velcade, compound 8, or a combination thereof for 1 h at 37° C. The cells were then harvested and cell lysates were immunoblotted with anti-ubiquitin antibodies to detect accumulation of high molecular weight conjugates. Blots were also probed with anti-PSTAIRE antibodies as a loading control.

RPMI8226 cells = assay: Accumulation of high molecular weight ubiquitin conjugates (anti-ubiquitin immunoblot), RPMI8226 cells; type: cell-based; conditions: 1 h at 37° C.
From the text: as §2, §3

Ub-G76V-GFP/HeLa cells = assay: Degradation of pre-accumulated Ub-G76V-GFP (cycloheximide chase after MG132 washout); type: cell-based; conditions: up to 10 μM
Method: To evaluate this possibility, an assay was developed to determine the rate of degradation of pre-accumulated Ub-G76V-GFP molecules. […] Cells were then washed with PBS three times remove the MG132. Cells were then refreshed by adding DMEM containing cycloheximide (50 μg/mL; to block production of more Ub-G76V-GFP) and test compounds (0˜10 μM) were added into cells. Eight 96-well plates were prepared and one of the plates was imaged at 25, 50, 70, 100, 110, 125, 145, or 170 min after washing with PBS three times. After washing out MG132, degradation of pre-accumulated Ub-G76V-GFP appears to follow pseudo-first order reaction. Rate constant (K; 1/min) can be determined from the slope of plotting Ln (Fold Accumulation) versus Time (min) (see FIG. 17 and FIG. 18).
Ub-G76V-GFP/HeLa cells were treated with MG132 (2 μM) for 1 h and washed with PBS three times. DMEM containing cycloheximide (50 μg/mL) and compound 8 (0-10 μM) was added into cells. Eight 96-well plates were prepared and one of the plates was imaged at 25, 50, 70, 100, 110, 125, 145, or 170 min after washing with PBS three times.

HeLa = assay: MTT cell growth assay, HeLa; type: cell-based; conditions: Homo sapiens, 48 or 72 h, read-out: Cell line inhibition of growth GI50 HeLa
Method: (§4) To probe further the effect of compound 2 and related compounds 1, 3, 5, 6 and 7, various concentrations of these compounds were added to 13 different cell lines and incubated for 48 or 72 h. An MTT assay was then performed to evaluate cell growth and survival.

MCF7 = assay: MTT cell growth assay, MCF7; type: cell-based; conditions: Homo sapiens, 48 or 72 h, read-out: Cell line inhibition of growth GI50 MCF7
Method: as §4

MDAMB-231 = assay: MTT cell growth assay, MDAMB-231; type: cell-based; conditions: Homo sapiens, MDA-MB-231, 48 or 72 h, read-out: Cell line inhibition of growth GI50 MDAMB-231
Method: as §4

293 = assay: MTT cell growth assay, 293; type: cell-based; conditions: Homo sapiens, HEK293, 48 or 72 h, read-out: Cell line inhibition of growth GI50 293
Method: as §4

RPMI8226 = assay: MTT cell growth assay, RPMI8226; type: cell-based; conditions: Homo sapiens, RPMI-8226, 48 or 72 h, read-out: Cell line inhibition of growth GI50 RPMI8226
Method: as §4

RL = assay: MTT cell growth assay, RL; type: cell-based; conditions: Homo sapiens, 48 or 72 h, read-out: Cell line inhibition of growth GI50 RL
Method: as §4

Molt4 = assay: MTT cell growth assay, Molt4; type: cell-based; conditions: Homo sapiens, MOLT-4, 48 or 72 h, read-out: Cell line inhibition of growth GI50 Molt4
Method: as §4

CCRF-CEM = assay: MTT cell growth assay, CCRF-CEM; type: cell-based; conditions: Homo sapiens, 48 or 72 h, read-out: Cell line inhibition of growth GI50 CCRF-CEM
Method: as §4

HTC116 WT = assay: MTT cell growth assay, HTC116 WT; type: cell-based; conditions: 48 or 72 h, read-out: Cell line inhibition of growth GI50 HTC116 WT
Method: as §4

HCT116 p53−/− = assay: MTT cell growth assay, HCT116 p53−/−; type: cell-based; conditions: Homo sapiens, HCT-116, 48 or 72 h, read-out: Cell line inhibition of growth GI50 HCT116 p53−/−
Method: as §4

LNCaP = assay: MTT cell growth assay, LNCaP; type: cell-based; conditions: Homo sapiens, 48 or 72 h, read-out: Cell line inhibition of growth GI50 LNCaP
Method: as §4

DU145 = assay: MTT cell growth assay, DU145; type: cell-based; conditions: Homo sapiens, DU-145, 48 or 72 h, read-out: Cell line inhibition of growth GI50 DU145
Method: as §4

PC3 = assay: MTT cell growth assay, PC3; type: cell-based; conditions: Homo sapiens, PC-3, 48 or 72 h, read-out: Cell line inhibition of growth GI50 PC3
Method: as §4

13 different cell lines = assay: MTT cell growth assay, summary across 13 different cell lines; type: cell-based; conditions: vs compound 2, 13 cell lines
Method: as §4
Data for the assay with MCF-7 cells and HeLa cells is shown in FIG. 21 and FIG. 22, respectively. […] Thus, compound 2 blocks p97-dependent processes in cells and also blocks the proliferation of cancer cell lines, illustrating its potential utility as an anti-proliferative drug to treat cancer.

MRC5-WT = assay: CellTiter-Glo growth inhibition, parental MRC5 cells; type: cell-based; conditions: Homo sapiens, 48 h at 37° C., read-out: Cell line inhibition of growth GI50 MRC5-WT
MRC5-SV40 = assay: CellTiter-Glo growth inhibition, MRC5 cells engineered to express SV40; type: cell-based
T532C-Cdc48 = T532C-Cdc48 (Saccharomyces cerevisiae, UniProt P25694, T532C); assay: In vitro ATP hydrolysis (malachite green ATPase assay), T532C-Cdc48; type: biochemical, yeast
T532C-Cdc48, sequence (P25694 whole entry T532C): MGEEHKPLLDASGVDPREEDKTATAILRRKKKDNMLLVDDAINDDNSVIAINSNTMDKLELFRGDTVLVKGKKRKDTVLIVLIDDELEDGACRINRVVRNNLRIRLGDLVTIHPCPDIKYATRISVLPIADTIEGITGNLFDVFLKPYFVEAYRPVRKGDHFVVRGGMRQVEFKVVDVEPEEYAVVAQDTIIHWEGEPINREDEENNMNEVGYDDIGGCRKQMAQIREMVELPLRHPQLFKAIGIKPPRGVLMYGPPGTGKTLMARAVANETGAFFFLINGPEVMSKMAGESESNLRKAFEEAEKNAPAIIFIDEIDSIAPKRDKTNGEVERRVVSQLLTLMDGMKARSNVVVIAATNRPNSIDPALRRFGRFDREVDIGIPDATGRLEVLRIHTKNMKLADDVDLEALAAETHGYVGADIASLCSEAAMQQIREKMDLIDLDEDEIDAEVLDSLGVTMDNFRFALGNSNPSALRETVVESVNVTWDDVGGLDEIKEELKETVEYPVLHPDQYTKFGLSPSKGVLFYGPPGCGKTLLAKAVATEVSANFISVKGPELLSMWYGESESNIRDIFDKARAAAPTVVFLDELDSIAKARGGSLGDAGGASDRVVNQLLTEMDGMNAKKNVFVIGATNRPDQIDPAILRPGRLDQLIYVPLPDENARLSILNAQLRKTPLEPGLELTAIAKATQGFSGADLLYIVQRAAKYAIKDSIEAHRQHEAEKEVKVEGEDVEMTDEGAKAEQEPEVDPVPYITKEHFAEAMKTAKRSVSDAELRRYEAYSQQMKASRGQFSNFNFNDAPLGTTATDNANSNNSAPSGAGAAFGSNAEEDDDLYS
Method: as §1
To determine whether cysteine 522 is necessary for inhibition of p97 by compound 2, a mutant of p97 was constructed in which cysteine 522 was converted to either alanine (C522A-mp97) or threonine (C522T-mp97). The IC50 values of compound 2 were measured the against various enzymes during a 20-minute preincubation (see Table 2). Mutation of cysteine 522 in p97 to either alanine or threonine decreased sensitivity to compound 2 by greater than 100-fold. On the other hand, yeast Cdc48, which normally is quite resistant to compound 2, became nearly 30-fold more sensitive to the compound upon introduction of a cysteine in place of threonine 532.

wild type murine p97, sequence (Q01853 whole entry): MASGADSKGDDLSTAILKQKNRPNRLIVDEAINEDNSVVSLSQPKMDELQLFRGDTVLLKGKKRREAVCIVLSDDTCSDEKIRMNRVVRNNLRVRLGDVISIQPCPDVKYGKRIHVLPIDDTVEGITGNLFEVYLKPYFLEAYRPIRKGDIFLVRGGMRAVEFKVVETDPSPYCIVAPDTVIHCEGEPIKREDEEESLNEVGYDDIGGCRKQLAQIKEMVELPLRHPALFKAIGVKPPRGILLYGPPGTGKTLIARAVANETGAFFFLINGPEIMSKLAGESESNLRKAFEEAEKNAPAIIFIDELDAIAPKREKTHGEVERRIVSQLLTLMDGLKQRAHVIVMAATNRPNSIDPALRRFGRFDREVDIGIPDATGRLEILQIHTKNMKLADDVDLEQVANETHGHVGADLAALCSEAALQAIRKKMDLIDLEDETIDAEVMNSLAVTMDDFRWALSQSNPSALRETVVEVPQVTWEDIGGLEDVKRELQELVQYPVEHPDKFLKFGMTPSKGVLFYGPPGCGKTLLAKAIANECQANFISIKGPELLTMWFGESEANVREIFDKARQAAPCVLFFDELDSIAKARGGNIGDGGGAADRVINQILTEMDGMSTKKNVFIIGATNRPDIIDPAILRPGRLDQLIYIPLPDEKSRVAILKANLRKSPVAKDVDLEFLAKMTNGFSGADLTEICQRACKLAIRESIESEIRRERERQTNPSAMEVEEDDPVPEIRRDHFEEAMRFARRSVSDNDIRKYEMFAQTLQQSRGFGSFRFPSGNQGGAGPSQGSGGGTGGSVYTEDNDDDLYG

Structure (SMILES) | IC50 (wild type murine p97) | GI50 (HeLa) | GI50 (MCF7) | GI50 (MDAMB-231) | GI50 (RPMI8226) | GI50 (RL) | GI50 (Molt4) | GI50 (CCRF-CEM) | GI50 (HTC116 WT) | GI50 (HCT116 p53−/−) | GI50 (LNCaP) | GI50 (DU145) | GI50 (PC3) | other results
CC(C)(C)n1nc(-c2ccccc2)c2c(N)ncnc21 [Compound 1] | > 100 µM | 2 ± 1 µM | 4 ± 2 µM | 19 ± 8 µM | 1.1 ± 0.7 µM | 21 ± 10 µM | 7.4 ± 4.7 µM | 15 ± 5 µM | 10 ± 2 µM | 12 ± 4 µM | 38 ± 8 µM | 18 ± 4 µM | 11 ± 1 µM | accumulation of high molecular weight ubiquitin conjugates, HeLa cells (HeLa cells): not; accumulation of high molecular weight ubiquitin conjugates, RPMI8226 cells (RPMI8226 cells): not; effect on the decay of Ub-G76V-GFP (Ub-G76V-GFP/HeLa cells): no effect; GI50 293: 92 ± 14 µM; GI50 higher than that of compound 2 across the same cell lines (13 different cell lines): 3 to 18 fold
CC(C)(C)n1nc(-c2ccc3ccccc3c2)c2c(N)ncnc21 [Compound 5] | > 100 µM | 1 ± 0.3 µM | 2.3 ± 0.4 µM | 10 ± 1.8 µM | 9.8 ± 1.8 µM | 0.7 ± 0.2 µM | 0.6 ± 0.2 µM | 3.9 ± 1.3 µM | 4.3 ± 1.8 µM | 12 ± 3 µM | 7.6 ± 1.7 µM | 3.5 ± 0.6 µM | 5.9 ± 0.5 µM | 
CC(C)C[C@H](NC(=O)[C@H](Cc1ccccc1)NC(=O)c1cnccn1)B(O)O [Velcade, reference compound] |  |  |  |  |  |  |  |  |  |  |  |  |  | GI50 (MRC5-WT): 0.2 ± 0.07 µM; GI50 (MRC5-SV40; Homo sapiens, MRC5, 48 h at 37° C., CellTiter-Glo, read-out: Cell line inhibition of growth GI50 MRC5-SV40): 0.1 ± 0.01 µM; greater sensitivity of SV40-transformed cells than WT cell line (MRC5-SV40; MRC5-SV40 vs MRC5-WT GI50): 2 fold
CC(C)(C)n1nc(-c2ccccc2)c2c(NC(=O)CCl)ncnc21 [Compound 4] | 4.5 ± 3.5 µM |  |  |  |  |  |  |  | 19 ± 6 µM | 20 ± 5 µM | 23 ± 4 µM | 40 ± 10 µM | 6.3 ± 0.6 µM | IC50 (T532C-Cdc48): 35 ± 8 µM
